“And” between values parts separate entries of the source, which are not always exact repeats. Equal entries are not always repeated. “Also recorded” adds a separate entry of the source.
Columns and labels:
[1] = tested on: human BM CD34+ cells; assay: CFU-GEMM from 300 cGy-irradiated human BM CD34+ cells; assay type: cell-based
Procedure: (§1) CFC assays (colony-forming unit-granulocyte monocyte), burst-forming unit-erythroid, and CFU-GEMM were performed using MethoCult GF M3434 (Stemcell Technologies)[6]. For all in vitro assays, BM CD34^−KSL cells, KSL cells, and Lin^− cells were cultured in TSF media (IMDM, 10% FBS, 1% pen-strep, 20 ng/mL recombinant mouse TPO, 125 ng/mL recombinant mouse SCF, 50 ng/mL recombinant mouse Flt3 ligand). Recombinant mouse SCF, Flt3 ligand, and TPO were purchased from R&D Systems. For competitive repopulation assays, BM cells were isolated from donor 10–12-week-old female CD45.2^+ mice. Recipient 10-week-old female CD45.1^+ B6.SJL mice were irradiated with 950 cGy TBI using a Cs137 irradiator and donor BM cells were administered via tail vein injection along with a competing dose of 1 × 10^5 non-irradiated host BM cells. Multilineage donor hematopoietic cell engraftment was measured in the PB by flow cytometry.
Human BM mononuclear cells were purchased from AllCells. Cryopreserved human BM cells were recovered in IMDM + 10% FBS + 1% penicillin–streptomycin and then positively selected for CD34^+ stem/progenitor cells by using CD34 MicroBead Kit (Miltenyi Biotec, #130-046-702, 1:5). […]

[2] = tested on: human BM CD34+ cells; assay: Recovery of CD34+CD38− cells from 300 cGy-irradiated human BM CD34+ cells; assay type: cell-based; conditions: 36 h, 5 µg/mL DJ001
[3] = tested on: BM KSL cells / BM lin− cells; assay: Gene expression of cell cycle regulatory genes (qPCR); assay type: cell-based, mouse
Procedure: Rac1 CDS-targeting- and Bcl2l1 CDS-targeting shRNA in lentiviral plasmid (TRCN0000310888 and TRCN0000004685) and control shRNA (SHC216V) were purchased from Sigma Aldrich. For viral production, 293T cells were transfected with lentiviral gag/pol and VSV-G (courtesy of Donald Kohn, UCLA) and the lentiviral plasmids, at a ratio of 2.2: 1.2: 3.3 (in [μg], gag/pol:VSVG:Plasmid) using Lipofectamine 3000 and P300 Enhancer. Viral particles were collected after 24 h and 48 h. One milliliter of viral supernatant was used to infect 0.75 × 10^6 BM lin^− cells. Infected cells were collected the next day and irradiated with 300 cGy followed by treatment with or without 1 μg/mL DJ001, prior to CFC assay.
For all studies, RNA was isolated using the Qiagen RNeasy micro kit (Qiagen). RNA was reverse transcribed using the High-Capacity cDNA Reverse Transcription Kit (ThermoFisher Scientific) and was then used for quantitative PCR with SYBR Select Master Mix (Life Technologies). Values were normalized to housekeeping gene Gapdh/GAPDH and given as ΔΔCt values normalized to media-treated, non-irradiated BM KSL cells (2(−ΔΔC(T)) method)[67].

[4] = tested on: adult C57BL/6 mice; assay: 30 day systemic treatment of non-irradiated mice (blood counts, BM HSC/progenitors, CFCs); assay type: in vivo, mouse
Procedure: Femurs and tibiae were collected from killed C57BL/6 or Ptprs^−/− mice and flushed with IMDM containing 10% FBS and 1% penicillin–streptomycin for BM cells. PB was collected through sub-mandibular puncture. Cells were filtered through a 40 μM strainer and then treated with ACK lysis buffer (Sigma Aldrich) before antibody staining for flow cytometry. For KSL and CD150^+CD48^−KSL cell analysis, BM cells were stained with allophycocyanin (APC)-and Cy7-conjugated anti-mouse Sca1 (BD Biosciences, #560654, 1:100), phycoerythrin (PE)-conjugated anti-mouse c-kit (BD Biosciences, #553355, 1:100), V450 lineage cocktail (BD Biosciences, 561301, 1:10), Alexa Fluor 488-conjugated anti-mouse CD48 (BioLegend, #103414, 1:100), and Alexa Fluor 647-conjugated anti-mouse CD150 (Biolegend, #115918, 1:100) antibodies. For MEP, CMP, GMP, and CLP cell analysis, BM cells were stained with APC-Cy7-conjugated anti-mouse Sca1 (BD Biosciences, #560654, 1:100), PE-conjugated anti-mouse ckit (BD Biosciences, #553355, 1:100), V450 lineage cocktail (BD Biosciences, #561301; 1:10), Alexa Fluor 488-conjugated anti-mouse CD127 (BD Biosciences, #561533, 1:100), Alexa Fluor 647-conjugated anti-mouse CD34 (BD Biosciences, #560230; 1:100), and BV605-conjugated anti-mouse CD16/32 antibodies (BD Biosciences, #563006; 1:100). For donor engraftment analysis in transplanted mice, PB or BM cells were stained with BV605-conjugated anti-mouse CD45.2 (BioLegend, #109841, 1:100), fluorescein isothiocyanate (FITC)-conjugated anti-mouse CD45.1 (BD Biosciences, #553775, 1:100), PE-conjugated anti-mouse Mac-1 (BD Biosciences, #557397, 1:100) and anti-mouse Gr1 (BD Biosciences, #553128, 1:100), V450-conjugated anti-mouse CD3 (BD Biosciences, #561389, 1:100), and APC-Cy7-conjugated anti-mouse B220 (BD Biosciences, 552094, 1:100) antibodies.
as §1

[5] = KSL cells, 36 h following 300 cGy, normalized to Gapdh and media
[6] = 30 day treatment of non-irradiated mice, individual mice
[7] = 30 day treatment of non-irradiated mice, replicates

## O=C(/C=C\Nc1cccc([N+](=O)[O-])c1)c1ccccc1 [DJ001, (Z)-3-((3-nitrophenyl)amino)-1-phenylprop-2-en-1-one]
[1]; 300 cGy-irradiated human BM CD34+ cells, replicates
  Figure 5b: CFU-GEMM: 8 and 13 and 15 and 22 and 19 and 14
[1]; 72 h following 300 cGy irradiation of human BM CD34+ cells
  recovery of multipotent CFU-GEMMs: increased the recovery of multipotent CFU-GEMMs
[2]
  recovery of viable human BM CD34+CD38− cells following irradiation: increased the recovery
[3]; BM KSL cells transduced with Rac1-shRNA
  DJ001-mediated transcription of Cdk2 and Cyclin E with Rac1-shRNA: blocked DJ001-mediated transcription of Cdk2 and Cyclin E
[3]; BM lin− cells, 48 h after 300 cGy, shCtrl
  Fold changes (2^−ΔΔCt) of Cyclin E expression (Figure 4c right panel): 1.96 and 1.7 and 1.9
[3]; BM lin− cells, 48 h after 300 cGy, shRac1
  Fold changes (2^−ΔΔCt) of Cdk2 expression (Figure 4c left panel): 0.56 and 0.39 and 0.71 and 0.44
[3]; [5]
  Fold changes (2^−ΔΔCt) of Cdk2 expression: 1.9 and 2.08 and 1.8
  Fold changes (2^−ΔΔCt) of Cdk4 expression: 1.32 and 1.05 and 1
  Fold changes (2^−ΔΔCt) of Cdk6 expression: 1.09 and 0.91 and 0.98
  Fold changes (2^−ΔΔCt) of Cdkn1A expression: 1.43 and 1.41 and 1.14
  Fold changes (2^−ΔΔCt) of Cdkn1B expression: 1.11 and 1.07 and 0.74
  Fold changes (2^−ΔΔCt) of Cyclin D1 expression: 1.54 and 1.21 and 0.97
  Fold changes (2^−ΔΔCt) of Cyclin D2 expression: 1.04 and 1.14 and 0.74
  Fold changes (2^−ΔΔCt) of Cyclin E expression: 2.54 and 2.89 and 2.07
[3]; irradiated BM KSL cells
  expression of Cdk4, Cdk6, Cdkn1a, Cdkn1b, Cyclin D1, Cyclin D2: did not alter the expression
[3]; irradiated KSL cells
  expression of Cdk2 and Cyclin E: significantly increased the expression
[4]; [6]
  Supplementary Figure 3c (center left panel): blood counts: 0.82 and 1.16 and 1.29 and 0.87 and 1.1 and 1.4 and 0.98
  Supplementary Figure 3c (center right panel): blood counts: 4.18 and 4.99 and 3.87 and 3.78 and 3.15 and 4.96 and 3.86
  Supplementary Figure 3c (left panel): blood counts: 5.14 and 6.28 and 5.54 and 5.44 and 4.5 and 5.46 and 7.08
  Supplementary Figure 3c (right panel): blood counts: 982 and 1048 and 1026 and 1004 and 1184 and 1209 and 1110
  Supplementary Figure 3d (center panel): BM HSC/progenitors: 3.5181 and 6.1488 and 9.9568 and 8.316 and 4.0147 and 7.046 and 6.2794
  Supplementary Figure 3d (left panel): BM HSC/progenitors: 1.912 and 2.52 and 3.92 and 3.024 and 2.624 and 2.168 and 3.376
  Supplementary Figure 3d (right panel): BM HSC/progenitors: 3.375 and 1.086 and 2.798 and 5.06 and 3.054 and 1.789 and 4.039
[4]; [7]
  Supplementary Figure 3e: BFU-E: 0
  Supplementary Figure 3e: CFU-GEMM: 0 (3×) and 1 (2×) and 2
  Supplementary Figure 3e: CFU-GM: 10 and 7 and 8 and 6 (2×) and 9
[4]; non-irradiated mice, 5 mg/kg subcutaneously every other day for 30 days, 5 mg/kg
  complete blood counts, BM HSC or progenitor cell content, BM CFCs vs vehicle: no significant changes; also recorded: caused no expansion of HSCs, progenitors, or mature blood counts
